Holding throughout (experiment): PapG Luminex ligand binding at equilibrium
In experiment [1] the target is T1, E. coli CFT073 PapG-II lectin domain PapGLD variant N96S G147A, SEQ ID NO: 21 (Escherichia coli, UniProt A0A0H2VAQ6, G167A/N116S).
T1 sequence (A0A0H2VAQ6 with tags, fused parts or gaps N116S/G167A): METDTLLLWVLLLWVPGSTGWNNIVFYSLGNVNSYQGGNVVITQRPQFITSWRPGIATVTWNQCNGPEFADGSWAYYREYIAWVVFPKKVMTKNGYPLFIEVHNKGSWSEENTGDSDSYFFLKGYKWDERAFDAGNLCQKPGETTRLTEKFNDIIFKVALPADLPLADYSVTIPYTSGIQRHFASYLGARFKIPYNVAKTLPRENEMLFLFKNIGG
The settings on record: HEPES pH 7.4, 4° C. overnight. As to the method: (§1) To determine the ability of PapGLD mutants to bind the porcine derived globotetraosyl ceramide ligand GalNAc-Gal-Gal-Glc-ceramide (GbO4), a Luminex ligand binding assay was developed. Surfactant Protein-A (SP-A) was coupled to the surface of MagPlex beads by EDC/NHS, to capture the lipid tail of the globotetraosyl ceramide. The Globotetraosyl ceramide/SP-A beads were incubated with an eight-point threefold titration of PapG in a 96 well flat bottom white plate with final volume of 100 microliters of 50 mM HEPES PH 7.4, 10 mM NaCl, 0.0005% Tween 20 shaking at 300 rpm, 4° C. overnight. After 20-24 hours the ligand binding plates were read on a FlexMap 3D plate reader for measurement of well-bead region specific MFI. Ligand binding equilibrium dissociation constants (Kd) were calculated assuming one site specific binding and interpolated using non-linear curve fitting (GraphPad Prism) as the ligand concentration needed to achieve half-maximal binding. The Luminex derived apparent Kd values are based on approximately fifty bead counts per assay sample.
(§2) To determine Luminex ligand binding affinities of PapG mutants for the synthetic globoside ligand Gal-Glc-phenoxy-octyl-amine (GbO2Mpo), a Luminex ligand binding assay was developed based on the direct coupling of the amine reactive globoside ligand to the EDC/NHS activated carboxylic surface of MagPlex beads. Synthesis of GbO2Mpo ligand with an octyl amine linker (for coupling to beads) was performed via methods described previously. The GbO2Mpo beads were incubated with an 8-point, threefold titration of PapG in a 96-well flat bottom white plate with final volume of 100 μl of 50 mM HEPES pH 7.4, 10 mM NaCl, 0.0005% Tween 20 shaking at 300 rpm, 4° C. overnight. After 20-24 hours the ligand binding plates were read on a FlexMap 3D plate reader for measurement of well-bead region specific MFI.
(§3) Binding of PapG proteins to GbO2 or GbO4 ligands was evaluated using a Luminex platform wherein ligands were coupled to MagPlex beads via surfactant protein A (for […]) or directly using […] conjugation (for […]). This assay was used to rank order binding affinities of the mutants, reported as Kd values interpolated from protein antigen titration curves (Table 7).

In experiment [2] the target is T2, E. coli CFT073 full-length donor strand complemented PapG-II, PapGDSF variant N96S N242S N286S K172A, SEQ ID NO: 26 (Escherichia coli, UniProt A0A0H2VAQ6, K192A/N116S/N262S/N306S).
T2 construct: mouse IgGK signal peptide, C-terminal 8xHis, ExpiCHO, purified
T2 sequence (A0A0H2VAQ6 with tags, fused parts or gaps N116S/K192A/N262S/N306S): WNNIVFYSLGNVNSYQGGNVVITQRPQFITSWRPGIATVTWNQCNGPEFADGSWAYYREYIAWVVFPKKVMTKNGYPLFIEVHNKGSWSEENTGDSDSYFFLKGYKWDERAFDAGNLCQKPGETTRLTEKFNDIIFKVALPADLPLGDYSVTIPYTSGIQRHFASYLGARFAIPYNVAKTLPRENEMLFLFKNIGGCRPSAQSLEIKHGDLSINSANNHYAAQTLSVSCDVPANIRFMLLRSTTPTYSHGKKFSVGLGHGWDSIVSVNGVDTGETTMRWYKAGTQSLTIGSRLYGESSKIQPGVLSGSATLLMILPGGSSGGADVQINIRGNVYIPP
The settings on record: for Kd: HEPES pH 7.4, 4° C. overnight. As to the method: as §1, §2, §3

The target of experiment [3] is T3, E. coli CFT073 full-length donor strand complemented PapG-II, PapGDSF N96S N242S N286S (Escherichia coli, UniProt A0A0H2VAQ6, N116S/N262S/N306S).
T3 construct: mouse IgGK signal peptide, C-terminal 8xHis, ExpiCHO, purified
T3 sequence (A0A0H2VAQ6 with tags, fused parts or gaps N116S/N262S/N306S): T2 sequence (A0A0H2VAQ6 with tags, fused parts or gaps N116S/K192A/N262S/N306S) with A172K
The following applies: HEPES pH 7.4, 4° C. overnight. As to the method:
as §1, §2, §3

Experiment [4] deals with T4, E. coli CFT073 PapG-II lectin domain PapGLD N96S WT v1, SEQ ID NO: 13 (Escherichia coli, UniProt A0A0H2VAQ6, N116S).
T4 sequence (A0A0H2VAQ6 with tags, fused parts or gaps N116S): T1 sequence (A0A0H2VAQ6 with tags, fused parts or gaps N116S/G167A) with A167G
The settings on record: HEPES pH 7.4, 4° C. overnight. Here is the method: as §1, §2, §3

The target of experiment [5] is T5, E. coli CFT073 PapG-II lectin domain PapGLD variant N96S G168A, SEQ ID NO: 17 (Escherichia coli, UniProt A0A0H2VAQ6, G188A/N116S).
T5 sequence (A0A0H2VAQ6 with tags, fused parts or gaps N116S/G188A): T1 sequence (A0A0H2VAQ6 with tags, fused parts or gaps N116S/G167A) with A167G, G188A
The following applies: HEPES pH 7.4, 4° C. overnight. As to the method:
as §1, §2, §3

[6] abbreviates: GbO2Mpo beads, read-out: Kd (GbO2).
Where [7] appears, read: GbO4 beads, read-out: Kd (GbO4).

Changes are numbered by the printed parent chain. Like-named read-outs stand apart in the source and are kept apart here.

With Gal-Glc-phenoxy-octyl-amine [GbO2], the dissociation constant Kd was 4.6 nM in experiment [1] (setting [6]); more than 300 nM in experiment [2] (setting [6]); 2.2 nM in experiment [3] (setting [6]); 0.7 nM in experiment [4] (setting [6]); 2.7 nM in experiment [5] (setting [6]). The “binding to GbO2 (in words)” value in experiment [2] is listed as “no binding was detected”.
With GalNAc-Gal-Gal-Glc-ceramide [GbO4], the Kd was more than 300 nM in experiment [1] (setting [7]); more than 300 nM in experiment [2] (setting [7]); 3 nM in experiment [3] (setting [7]); 14.1 nM in experiment [4] (setting [7]); more than 100 nM in experiment [5] (setting [7]). For the same substance, in experiment [2], the “binding to GbO4 (in words)” value was “no binding was detected”.

Values taken from patent US20260061042A1, “POLYNUCLEOTIDE COMPOSITIONS AND USES THEREOF” (Pfizer Inc., priority 2024, published 2026).
